Measured values reported in US20110091375A1, “USE OF THE COMBINATION COMPRISING TEMOZOLOMIDE AND TNF-ALPHA FOR TREATING GLIOBLASTOMA” (THE UNIVERSITY OF CHICAGO, priority 2004, published 2011).

What was measured:
[1] = tested on: U87 cells infected with Ad.Egr-TNF; assay: TNFα induction in vitro (Quantikine ELISA of conditioned media); type: cell-based, human
Protocol: 10^6 U87 cells were plated and incubated overnight. The cells were then infected with Ad.Egr-TNF at a multiplicity of infection (MOI) of 100 for 3 h at 37° C. After incubation, 3.8 mL of complete media with or without TMZ was added. Conditioned media were harvested at 48 h after treatment and human TNFα production was quantified using a Quantikine ELISA kit (R&D System Inc., Minneapolis, Minn.).

[2] = tested on: U87 intracranial xenografts; assay: Intracranial glioma xenograft survival; type: in vivo, nude mice; conditions: first intracranial experiment; TMZ 20 mg/kg total IP, single IC Ad.Egr-TNF
Protocol: Intracranial Studies: In two separate experiments, 5×10^5 U87 cells were inoculated into the right caudate nucleus on day 0 using a screw guide technique (Lal, S. et al. (2000) J Neurosurg 92:326-333). In the first experiment, mice were randomized into four groups as described above in Example 4. On day 5, a single intracranial (IC) injection of 5×10^8 pu Ad.Egr-TNF in 5 μl volume was made directly into the tumor using the screw guide technique. TMZ (5 mg/kg) was given IP 3 h after IC vector inoculation. Three additional IP TMZ injections were administered on consecutive days for a total dose of 20 mg/kg. Control animals received SFM IT and IP.
(§1) In a second experiment, mice were randomized into eight groups (untreated control (UTC); intratumoral (IT) Ad.Egr-TNF alone; intraperitoneal (IP) TMZ alone; IR alone; Ad.Egr-TNF and TMZ; Ad.Egr-TNF and IR; TMZ and IR; and Ad.Egr-TNF, TMZ and IR). A single dose of 5×10^5 U87 cells was inoculated into the right caudate nucleus of each mouse on day 0 using a screw guide technique (Lal, S. et al. (2000) J Neurosurg 92:326-333). On day 5, 5×10^8 pu Ad.Egr-TNF in 5 μL volume was injected once via the screw guide directly into the tumor. Beginning two hours after vector injection, 5 Gy IR was delivered to the tumor area and repeated every 2-3 days to a total of 30 Gy. […]

[3] = tested on: U87 intracranial xenografts; assay: Histological analysis and TUNEL of intracranial tumor sections; type: in vivo, nude mice; conditions: day 7
Protocol: as §1, with “Gy. TMZ (5 mg/kg) was given IP 3 h after vector inoculation and like doses were given daily for the next two days for a total dose of 15 mg/kg. Control animals received SFM IT and IP and were also placed in Lucite chambers. Daily assessment of animal appearance was made.” for “Gy.”
Paraffin embedded brains were sectioned (8 μm), stained with hematoxylin and eosin and analyzed in a blinded fashion.
Terminal deoxynucleotidyl transferase-mediated dUTP-biotin nick end-labeling (TUNEL) assay was performed in accordance with the manufacturer's instructions (Chemicon) and analyzed blindly at 400× magnification by use of a computer-aided light microscope with reconstruction software (Neurolucida, Microbrightfield, Vt.). […]

[4] = tested on: NF-κB in Panel pancreatic cancer cells; assay: NF-κB-responsive luciferase reporter assay, Panel; type: cell-based, human
[5] = tested on: NF-κB in BxPC-3 pancreatic cancer cells; assay: NF-κB-responsive luciferase reporter assay, BxPC-3; type: cell-based, human
IκBα = assay: TNFα-induced IκBα degradation and phosphorylation (Western blot / kinase assay); type: cell-based, human
Protocol: Cells were then washed with 10 mL ice-cold PBS, scraped from the dish, and pelleted by centrifugation at 1000 rpm for 5 m at 4° C. Cell pellets were resuspended in 400 μl of ice-cold buffer A (10 mM HEPES, pH 7.9; 10 mM KCl; 0.1 mM EDTA; 1 mM DTT; 0.5 mM phenylmethysulfonylfluoride [PMSF]; 1 μg/mL leupeptin; 5 μg/mL aprotinin) and allowed to swell on ice for 15 m. Following the addition of 25 μl of 10% NP-40, the suspension was vortexed for 10 s and centrifuged at 14,500 rpm for 1 m at 4° C. Nuclei were resuspended in 50 μl of ice-cold buffer B (20 mM HEPES, pH 7.9; […]; 1 mM EDTA; 1 mM DTT; 1 mM PMSF; 25% glycerol; 1 μg/mL leupeptin; 5 μg/mL aprotinin) and incubated on ice for 15 m. The nuclear suspension was then centrifuged at 14,500 rpm for 5 m at 4° C. and the supernatant containing the nuclear proteins was transferred to a clean tube. Protein concentrations for each sample were determined by the Bradford method (Bio-Rad, Richmond, Calif., USA) and were adjusted to 2 μg/μl by the addition of buffer B.
(§2) 20 μg of whole U87 cell (or nuclear) lysate was subjected to sodium dodecyl sulfate (SDS)-polyacrylamide gel electrophoresis (PAGE). Following electro-transfer, Immobilon-P membranes (Millipore Corp. Burlington, Mass., USA.) were probed with primary polyclonal antibody against IκBα, phospho-Ser32-IκBα, SAPK/JNK, phospho-Thr183/Tyr185-SAPK/JNK, p65, phospho-Ser536-p65 (Cell Signaling Technology Inc. Beverly, […]., USA) diluted 1:1000 overnight at 4° C. Anti-rabbit IgG HRP-linked secondary antibody (Cell Signaling Technology) was diluted 1:1000 in blocking buffer and applied for 1 h at room temperature. Immunoreactive bands were detected by SuperSignal enhanced chemiluminescence (ECL) (Pierce, Rockford, Ill., USA) and exposed to Kodak X-Omat film.
IκK was immunoprecipitated from treated U87 cell extracts with anti-IKKβ antibody, (Santa Cruz Biotechnology, Santa Cruz, Calif., USA). […] Kinase activity was quantified using a Phosphoimager and Equal protein loading determined by immunoblotting with anti-IκKβ antibody (Upstate USA, Charlottesville, Va., USA). […]

p65 = assay: TNFα-induced p65 phosphorylation (Western blot); type: cell-based, human
Protocol: as §2

Cn1nnc2c(C(N)=O)ncn2c1=O [TMZ, temozolomide]
TNFα detection in vitro [1]: TNFα was detected
increase in TNFα expression compared to cells infected with vector alone ([1]; U87 cells infected with Ad.Egr-TNF (MOI 100), 100 μM TMZ, 48 h): 2.3 fold
median survival [2]: 28 days
TUNEL positive cells [3]: 14±12 TUNEL^+ cells/10^−6 mm^2
TNFα-induced NF-κB transcriptional activity [4]: activated
TNFα-induced NF-κB transcriptional activity [5]: activated
reduction of TNFα-induced phosphorylation of IκBα (IκBα; TMZ pretreatment, at 5 m): 50%
degradation of IκBα (IκBα; at 15 m, TNFα with or without TMZ pretreatment): reduced TNFα-induced degradation
TNFα-induced p65 phosphorylation (p65): inhibits
